Data as given in patent US10023570B2 (Array BioPharma, Inc., priority 2015, dated 2018).
Structures can show the parent of a compound that is named as a salt. Where two headings read alike, the source gives them in different places.

What was measured:
[1] = target: human KDR protein in HEK-293 cells (Homo sapiens (Human), UniProt P35968); assay: KDR Cell Assay (phospho-KDR in HEK-293 cells expressing inducible KDR); format: cell-based; conditions: pKDR Cell HEK 10% FBS IC50, HEK-293 cells expressing inducible KDR, VEGF stimulated
Chain of human KDR protein in HEK-293 cells (P35968 20-1356): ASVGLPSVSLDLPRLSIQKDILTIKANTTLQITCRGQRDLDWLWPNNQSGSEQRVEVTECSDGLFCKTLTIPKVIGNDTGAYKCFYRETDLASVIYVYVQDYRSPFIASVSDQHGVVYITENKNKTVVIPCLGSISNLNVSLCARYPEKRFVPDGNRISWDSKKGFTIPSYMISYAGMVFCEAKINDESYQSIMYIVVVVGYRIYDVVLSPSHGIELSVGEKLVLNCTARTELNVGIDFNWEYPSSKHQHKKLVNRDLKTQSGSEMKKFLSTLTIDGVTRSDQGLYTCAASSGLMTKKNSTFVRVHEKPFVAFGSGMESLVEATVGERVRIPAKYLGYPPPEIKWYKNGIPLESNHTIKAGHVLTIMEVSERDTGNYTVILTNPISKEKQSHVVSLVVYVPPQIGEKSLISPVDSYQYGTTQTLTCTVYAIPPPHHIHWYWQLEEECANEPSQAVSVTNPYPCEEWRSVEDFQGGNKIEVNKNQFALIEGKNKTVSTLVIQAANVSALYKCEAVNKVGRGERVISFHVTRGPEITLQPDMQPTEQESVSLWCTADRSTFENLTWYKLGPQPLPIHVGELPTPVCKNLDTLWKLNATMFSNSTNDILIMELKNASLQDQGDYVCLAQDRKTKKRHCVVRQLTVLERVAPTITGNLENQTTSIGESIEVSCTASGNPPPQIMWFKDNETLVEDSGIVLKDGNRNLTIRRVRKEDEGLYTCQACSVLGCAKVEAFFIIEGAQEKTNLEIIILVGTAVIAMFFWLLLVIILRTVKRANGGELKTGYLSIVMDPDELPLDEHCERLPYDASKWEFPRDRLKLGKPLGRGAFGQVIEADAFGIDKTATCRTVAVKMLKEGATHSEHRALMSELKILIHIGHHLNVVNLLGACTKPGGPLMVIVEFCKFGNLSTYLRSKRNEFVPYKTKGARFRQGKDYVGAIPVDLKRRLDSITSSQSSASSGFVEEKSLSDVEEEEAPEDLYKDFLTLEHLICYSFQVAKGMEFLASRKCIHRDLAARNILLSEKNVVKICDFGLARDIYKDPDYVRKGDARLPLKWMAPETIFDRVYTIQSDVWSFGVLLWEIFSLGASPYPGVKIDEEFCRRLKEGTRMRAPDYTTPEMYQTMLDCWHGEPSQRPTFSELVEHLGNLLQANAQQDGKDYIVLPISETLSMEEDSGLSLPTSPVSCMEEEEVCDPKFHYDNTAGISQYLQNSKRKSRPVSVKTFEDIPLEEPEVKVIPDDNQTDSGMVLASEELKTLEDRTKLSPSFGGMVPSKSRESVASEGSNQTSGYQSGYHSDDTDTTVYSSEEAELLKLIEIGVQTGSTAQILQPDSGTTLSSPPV
Outline: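 HEK-293 cells with inducible human KDR were treated with compound for 1 h in DMEM (0.25% DMSO final), then lysed. Phospho-KDR was quantified by Meso Scale immunoassay, expressed as percent of control, and IC50 taken where a 4-parameter logistic fit crossed 50 POC.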

[2] = target: N-terminal GST tagged recombinant human RET cytoplasmic domain (aa 658-end), wild type RET kinase (Homo sapiens (Human), UniProt P07949); assay: RET Enzyme Assay (HTRF KinEASE-TK), wild type RET; format: biochemical; conditions: wild type RET, 1 mM ATP
Chain of N-terminal GST tagged recombinant human RET cytoplasmic domain (aa 658-end), wild type RET kinase (P07949 658-1114): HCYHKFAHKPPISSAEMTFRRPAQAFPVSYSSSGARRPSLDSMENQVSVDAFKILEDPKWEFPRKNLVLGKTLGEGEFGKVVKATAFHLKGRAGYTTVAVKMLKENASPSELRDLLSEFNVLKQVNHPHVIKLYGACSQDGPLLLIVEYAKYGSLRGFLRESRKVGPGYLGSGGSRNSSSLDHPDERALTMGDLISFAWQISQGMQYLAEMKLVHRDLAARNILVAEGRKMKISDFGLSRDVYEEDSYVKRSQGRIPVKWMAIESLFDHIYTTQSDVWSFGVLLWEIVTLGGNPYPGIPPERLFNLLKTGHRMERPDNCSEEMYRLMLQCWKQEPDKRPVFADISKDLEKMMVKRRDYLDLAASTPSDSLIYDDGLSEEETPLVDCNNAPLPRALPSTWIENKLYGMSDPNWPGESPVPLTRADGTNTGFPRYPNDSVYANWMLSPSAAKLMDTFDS

[3] = target: Kif5b-RET fusion protein in HEK-293 cells (Homo sapiens, UniProt P07949); assay: cell-based
Chain of Kif5b-RET fusion protein in HEK-293 cells (P07949 29-1114 limits assumed): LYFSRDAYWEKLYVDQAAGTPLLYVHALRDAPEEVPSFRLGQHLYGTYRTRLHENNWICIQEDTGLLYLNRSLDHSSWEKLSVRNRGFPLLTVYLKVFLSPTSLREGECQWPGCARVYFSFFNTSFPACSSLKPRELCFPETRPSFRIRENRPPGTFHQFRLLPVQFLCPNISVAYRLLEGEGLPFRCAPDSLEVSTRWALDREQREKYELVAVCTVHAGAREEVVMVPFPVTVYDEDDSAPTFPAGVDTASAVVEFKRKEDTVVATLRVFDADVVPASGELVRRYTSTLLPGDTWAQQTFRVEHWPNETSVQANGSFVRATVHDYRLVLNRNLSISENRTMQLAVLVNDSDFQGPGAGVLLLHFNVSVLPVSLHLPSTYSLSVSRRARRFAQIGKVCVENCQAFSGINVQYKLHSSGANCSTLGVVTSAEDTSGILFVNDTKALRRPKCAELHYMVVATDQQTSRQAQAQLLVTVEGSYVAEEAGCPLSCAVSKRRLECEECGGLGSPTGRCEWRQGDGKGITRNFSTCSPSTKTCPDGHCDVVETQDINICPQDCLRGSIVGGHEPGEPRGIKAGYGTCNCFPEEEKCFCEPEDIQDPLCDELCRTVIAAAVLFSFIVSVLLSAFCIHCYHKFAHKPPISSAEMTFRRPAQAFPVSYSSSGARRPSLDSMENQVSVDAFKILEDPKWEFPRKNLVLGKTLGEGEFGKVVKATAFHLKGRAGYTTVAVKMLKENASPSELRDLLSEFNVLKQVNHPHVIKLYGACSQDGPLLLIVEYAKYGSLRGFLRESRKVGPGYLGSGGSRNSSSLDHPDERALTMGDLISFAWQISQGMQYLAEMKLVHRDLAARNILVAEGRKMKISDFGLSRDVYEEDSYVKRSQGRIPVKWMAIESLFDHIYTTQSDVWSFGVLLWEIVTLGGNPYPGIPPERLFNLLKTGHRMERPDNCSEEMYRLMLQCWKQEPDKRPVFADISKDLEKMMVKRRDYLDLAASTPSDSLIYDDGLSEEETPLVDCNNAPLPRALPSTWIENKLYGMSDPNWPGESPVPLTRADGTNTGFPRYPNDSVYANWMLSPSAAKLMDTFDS

[4] = HEK-293 cells expressing Kif5b-RET, read-out: KIF5B-RET pTYR1062 Cell IC50
[5] = HEK-293 cells expressing Kif5b-RET, phospho-RET(Tyr1062), read-out: KIF5B-RET pTYR1062 Cell IC50

| IC50 [1] [nM] | IC50 [2] [nM] | IC50 [3, 4] [nM] | IC50 ([1]; 10% FBS) [nM] | IC50 [3, 5] [nM] | SMILES | IC50 [3] [nM] | IC50 ([3]; read-out: KIF5B-RET pTYR1062 Cell IC50) [nM] |
| --- | --- | --- | --- | --- | --- | --- | --- |
| 830 | 34 | 39.7 | – | – | CCC1(C(=O)NC(C)C)CCN(c2ccc(-c3cc(-c4cnn(C)c4C)cn4ncc(C#N)c34)cn2)CC1 [Example 597, 1-(5-(3-cyano-6-(1,5-dimethyl-1H-pyrazol-4-yl)pyrazolo[1,5-a]pyridin-4-yl)pyridin-2-yl)-4-ethyl-N-isopropylpiperidine-4-carboxamide] | – | – |
| – | 12.7 | – | 1040 | 48.6 | C[C@H](O)CC(=O)N1CCN(c2ccc(-c3cc(-c4cnn(C)c4)cn4ncc(C#N)c34)cn2)CC1 [Example 57, (S)-4-(6-(4-(3-hydroxybutanoyl)piperazin-1-yl)pyridin-3-yl)-6-(1-methyl-1H-pyrazol-4-yl)pyrazolo[1,5-a]pyridine-3-carbonitrile] | – | – |
| 4440 | 48.1 | 109 | – | – | CCc1nn(C)cc1-c1cc(-c2ccc(N3CCN(Cc4ccccc4)CC3)nc2)c2c(C#N)cnn2c1 [Example 610, 4-(6-(4-benzylpiperazin-1-yl)pyridin-3-yl)-6-(3-ethyl-1-methyl-1H-pyrazol-4-yl)pyrazolo[1,5-a]pyridine-3-carbonitrile] | – | – |
| 1960 | 15.6 | 45.7 | – | – | CC(C)CC(=O)N1CCN(c2ccc(-c3cc(-c4cnn(C)c4)cn4ncc(Cl)c34)cn2)CC1 [Example 646, 1-(4-(5-(3-chloro-6-(1-methyl-1H-pyrazol-4-yl)pyrazolo[1,5-a]pyridin-4-yl)pyridin-2-yl)piperazin-1-yl)-3-methylbutan-1-one] | – | – |
| – | 7.6 | – | 771 | 6.5 | CC(C)[C@@H](O)C(=O)N1CCN(c2ccc(-c3cc(-c4cnn(C)c4)cn4ncc(C#N)c34)cn2)CC1 [Example 85, (R)-4-(6-(4-(2-hydroxy-3-methylbutanoyl)piperazin-1-yl)pyridin-3-yl)-6-(1-methyl-1H-pyrazol-4-yl)pyrazolo[1,5-a]pyridine-3-carbonitrile] | – | – |
| – | 3.6 | – | 1600 | 13 | CCN(CC)C(=O)N1CCN(c2ccc(-c3cc(-c4cnn(C)c4)cn4ncc(C#N)c34)cn2)CC1 [Example 98, 4-(5-(3-cyano-6-(1-methyl-1H-pyrazol-4-yl)pyrazolo[1,5-a]pyridin-4-yl)pyridin-2-yl)-N,N-diethylpiperazine-1-carboxamide] | – | – |
| 549 | 15.6 | 29.1 | – | – | COC(CN1CCN(c2ccc(-c3cc(-c4cnn(C)c4)cn4ncc(C#N)c34)cn2)CC1)C(C)C (stereo not drawn) [Example 413, 4-(6-(4-(2-methoxy-3-methylbutyl)piperazin-1-yl)pyridin-3-yl)-6-(1-methyl-1H-pyrazol-4-yl)pyrazolo[1,5-a]pyridine-3-carbonitrile] | – | – |
| – | 7.4 | – | 203 | 13.2 | Cn1cc(-c2cc(-c3ccc(N4CCN(C=O)CC4)nc3)c3c(C#N)cnn3c2)cn1 [Example 141, 4-(6-(4-formylpiperazin-1-yl)pyridin-3-yl)-6-(1-methyl-1H-pyrazol-4-yl)pyrazolo[1,5-a]pyridine-3-carbonitrile] | – | – |
| 431 | 38.2 | 5.2 | – | – | CC(C)Cn1cc(-c2cc(-c3ccc(N4CCN(Cc5ccccc5)CC4)nc3)c3c(C#N)cnn3c2)cn1 [Example 612, 4-(6-(4-benzylpiperazin-1-yl)pyridin-3-yl)-6-(1-isobutyl-1H-pyrazol-4-yl)pyrazolo[1,5-a]pyridine-3-carbonitrile] | – | – |
| – | 5.6 | – | 103 | 5.4 | Cn1cc(-c2cc(-c3ccc(N4CCC(C(=O)NCC(F)(F)F)CC4)nc3)c3c(C#N)cnn3c2)cn1 [Example 243, 1-(5-(3-cyano-6-(1-methyl-1H-pyrazol-4-yl)pyrazolo[1,5-a]pyridin-4-yl)pyridin-2-yl)-N-(2,2,2-trifluoroethyl)piperidine-4-carboxamide] | – | – |
| – | 10.7 | – | 1150 | 7.1 | Cn1cc(-c2cc(-c3ccc(N4CCC(C)(NC(=O)OC(C)(C)C)CC4)nc3)c3c(C#N)cnn3c2)cn1 [Example 201, tert-butyl (1-(5-(3-cyano-6-(1-methyl-1H-pyrazol-4-yl)pyrazolo[1,5-a]pyridin-4-yl)pyridin-2-yl)-4-methylpiperidin-4-yl)carbamate] | – | – |
| – | 6.3 | – | 1560 | 51.9 | CC[C@H](CO)NC(=O)N1CCN(c2ccc(-c3cc(-c4cnn(C)c4)cn4ncc(C#N)c34)cn2)CC1 [Example 96, (R)-4-(5-(3-cyano-6-(1-methyl-1H-pyrazol-4-yl)pyrazolo[1,5-a]pyridin-4-yl)pyridin-2-yl)-N-(1-hydroxybutan-2-yl)piperazine-1-carboxamide] | – | – |
| – | 10.9 | – | 630 | 45.5 | Cn1cc(-c2cc(-c3ccc(N4CCC(O)CC4)nc3)c3c(C#N)cnn3c2)cn1 [Example 196, 4-(6-(4-hydroxypiperidin-1-yl)pyridin-3-yl)-6-(1-methyl-1H-pyrazol-4-yl)pyrazolo[1,5-a]pyridine-3-carbonitrile] | – | – |
| – | 16.3 | – | 554 | 26.6 | Cn1cc(-c2cc(-c3ccc(N4CCN(C(=O)C(C)(F)F)CC4)nc3)c3c(C#N)cnn3c2)cn1 [Example 59, 4-(6-(4-(2,2-difluoropropanoyl)piperazin-1-yl)pyridin-3-yl)-6-(1-methyl-1H-pyrazol-4-yl)pyrazolo[1,5-a]pyridine-3-carbonitrile] | – | – |
| 740 | 6.4 | 26.2 | – | – | CONC(=O)C1CCN(c2ccc(-c3cc(-c4cnn(C)c4)cn4ncc(C#N)c34)cn2)CC1 [Example 564, 1-(5-(3-cyano-6-(1-methyl-1H-pyrazol-4-yl)pyrazolo[1,5-a]pyridin-4-yl)pyridin-2-yl)-N-methoxypiperidine-4-carboxamide] | – | – |
| – | 11.5 | – | 527 | 8.2 | CCC(C)(O)CC(=O)N1CCN(c2ccc(-c3cc(-c4cnn(C)c4)cn4ncc(C#N)c34)cn2)CC1 (stereo not drawn) [Example 63, 4-(6-(4-(3-hydroxy-3-methylpentanoyl)piperazin-1-yl)pyridin-3-yl)-6-(1-methyl-1H-pyrazol-4-yl)pyrazolo[1,5-a]pyridine-3-carbonitrile] | – | – |
| 1300 | 11.1 | 18.6 | – | – | Cn1cc(-c2cc(-c3ccc(N4CCN(CCOC(F)(F)F)CC4)nc3)c3c(C#N)cnn3c2)cn1 [Example 398, 6-(1-methyl-1H-pyrazol-4-yl)-4-(6-(4-(2-(trifluoromethoxy)ethyl)piperazin-1-yl)pyridin-3-yl)pyrazolo[1,5-a]pyridine-3-carbonitrile] | – | – |
| – | 14.1 | – | 911 | 25.4 | CC(C)C(=O)N1CCN(c2ccc(-c3cc(-c4cnn(C)c4)cn4ncc(C#N)c34)cn2)CC1 [Example 66, 4-(6-(4-isobutyrylpiperazin-1-yl)pyridin-3-yl)-6-(1-methyl-1H-pyrazol-4-yl)pyrazolo[1,5-a]pyridine-3-carbonitrile] | – | – |
| – | 13.9 | – | 2200 | 13.7 | COCC(C)(C)C(=O)N1CCN(c2ccc(-c3cc(-c4cnn(C)c4)cn4ncc(C#N)c34)cn2)CC1 [Example 352, 4-(6-(4-(3-methoxy-2,2-dimethylpropanoyl)piperazin-1-yl)pyridin-3-yl)-6-(1-methyl-1H-pyrazol-4-yl)pyrazolo[1,5-a]pyridine-3-carbonitrile] | – | – |
| – | 11.7 | – | 347 | 10.8 | CC(C)NC(=O)N1CCN(c2ccc(-c3cc(-c4cnn(C)c4)cn4ncc(C#N)c34)cn2)CC1 [Example 126, 4-(5-(3-cyano-6-(1-methyl-1H-pyrazol-4-yl)pyrazolo[1,5-a]pyridin-4-yl)pyridin-2-yl)-N-isopropylpiperazine-1-carboxamide] | – | – |
| – | 6.1 | – | 840 | 15.8 | CCONC(=O)C1CCN(c2ccc(-c3cc(-c4cnn(C)c4)cn4ncc(C#N)c34)cn2)CC1 [Example 237, 1-(5-(3-cyano-6-(1-methyl-1H-pyrazol-4-yl)pyrazolo[1,5-a]pyridin-4-yl)pyridin-2-yl)-N-ethoxypiperidine-4-carboxamide] | – | – |

| SMILES | IC50 [1] [nM] | IC50 [2] [nM] | IC50 [3, 4] [nM] | IC50 ([1]; 10% FBS) [nM] | IC50 [3, 5] [nM] | IC50 [3] [nM] | IC50 ([3]; read-out: KIF5B-RET pTYR1062 Cell IC50) [nM] |
| --- | --- | --- | --- | --- | --- | --- | --- |
| Cn1cc(-c2cc(-c3ccc(N4CCC(S(C)(=O)=O)CC4)nc3)c3c(C#N)cnn3c2)cn1 [Example 567, 6-(1-methyl-1H-pyrazol-4-yl)-4-(6-(4-(methylsulfonyl)piperidin-1-yl)pyridin-3-yl)pyrazolo[1,5-a]pyridine-3-carbonitrile] | 198 | 3.1 | – | – | – | 4.9 | – |
| COc1cccnc1CN1CCN(c2ccc(-c3cc(-c4cnn(C)c4)cn4ncc(C#N)c34)cn2)CC1 [Example 463, 4-(6-(4-((3-methoxypyridin-2-yl)methyl)piperazin-1-yl)pyridin-3-yl)-6-(1-methyl-1H-pyrazol-4-yl)pyrazolo[1,5-a]pyridine-3-carbonitrile formate] | 678 | 9.7 | – | – | – | 17.7 | – |
| Cn1cc(-c2cc(-c3ccc(N4CCN(C(=O)C(C)(C)C)CC4)nc3)c3c(C#N)cnn3c2)cn1 [Example 34, 6-(1-methyl-1H-pyrazol-4-yl)-4-(6-(4-pivaloylpiperazin-1-yl)pyridin-3-yl)pyrazolo[1,5-a]pyridine-3-carbonitrile 2,2,2-trifluoroacetate] | – | 34.8 | – | 3040 | – | – | 61.2 |
